Here are results for two compounds from ChEMBL document CHEMBL4732022, “Generation of reactive oxygen species is the primary mode of action and cause of survivin suppression by sepantronium bromide (YM155)” (RSC Med Chem, 2021).

Active and inactive are the calls of the source. The rule behind the calls is not given here.

The target of series [1] is Baculoviral IAP repeat-containing protein 5 (Homo sapiens) (UniProt O15392). Put plainly: Inhibition of survivin in human MDA-MB-231 cells assessed as reduction in survivin mRNA expression measured after 72 hrs by qPCR analysis. It counts as cell-based.
The target is the same in series [2]. Put plainly: Inhibition of survivin in human BT-20 cells assessed as reduction in survivin mRNA expression measured after 72 hrs by qPCR analysis. It counts as cell-based.
For series [3] the target is unchanged. Put plainly: Inhibition of survivin in human MDA-MB-453 cells assessed as reduction in survivin mRNA expression measured after 72 hrs by qPCR analysis. It counts as cell-based.
In series [4] the test system is MDA-MB-231. Put plainly: Induction of ROS generation in human MDA-MB-231 cells assessed as increase in ROS level at 20 uM incubated for 12 hrs by […] based assay. It counts as functional, cell-based.
The test system of series [5] is MDA-MB-231. The experiment in a line: Downregulation of survivin protein expression in human MDA-MB-231 cells at 20 uM incubated for 72 hrs by Western blot analysis. The series is classed as functional, cell-based. Background: A western blot detects proteins with antibodies after separation by electrophoresis.
The next series has as its system MCF-10A. The experiment in a line: Cytotoxicity against human MCF-10A cells at 200 uM. It counts as cell-based.
Series [6] relates to MDA-MB-231. The experiment in a line: Induction of ROS generation in human MDA-MB-231 cells assessed as increase in ROS level at 1 mM incubated for 12 hrs by […] based assay. It counts as functional, cell-based.
The subject of series [7] is MDA-MB-231. The experiment in a line: Downregulation of survivin protein expression in human MDA-MB-231 cells at 1 mM incubated for 72 hrs by Western blot analysis. It counts as functional, cell-based.

Chain of Baculoviral IAP repeat-containing protein 5 (Homo sapiens) (O15392 whole entry): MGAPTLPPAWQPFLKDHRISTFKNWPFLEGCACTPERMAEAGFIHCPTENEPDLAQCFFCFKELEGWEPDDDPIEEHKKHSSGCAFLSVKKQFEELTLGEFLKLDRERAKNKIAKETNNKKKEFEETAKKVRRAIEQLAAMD

For `CC1=CC(=O)c2ccccc2C1=O`, the inhibition result in series [1], in series [2] and in series [3] was “Active” each time. The result in the series on MDA-MB-231 [4] and in the series on MDA-MB-231 [5] was Active.
In the case of `CCCCS(=N)(=O)CCC(N)C(=O)O` (stereo unspecified) [BUTHIONINE SULFOXIMINE], the Activity entry with MCF-10A was “Non-Toxic”. Moreover, the inhibition entry in series [1], in series [2] and in series [3] was “Active” in each case. For the same compound, the outcome in the series on MDA-MB-231 [6] and with MDA-MB-231 [7] was Active.
